Assay results as given in patent US7671056B2, “Piperazine-piperidine antagonists and agonists of the 5-HT1A receptor” (Wyeth LLC, priority 2005, dated 2010).

How the values were obtained:
[1] = tested on: sexually experienced male rats (Sprague-Dawley rats); test: Animal model of SSRI-induced sexual dysfunction (non-contact penile erections); format: in vivo, rat
Description: The animal model is based on the finding that sexually experienced rats that are administered an SSRI, a drug used to treat certain conditions such as depression, display a reduction in the number of non-contact penile erections. SSRI treatment is associated with sexual dysfunction in human subjects. In general, the animal model exposes sexually experienced male rats (Sprague-Dawley rats) to female rats in estrous in a novel testing arena that is not the regular housing environment. The number of non-contact penile erections is assayed over a specified test period, e.g., 30 minutes (Sukoff, Rizzo, et al., 2006, Society for Neurosci. Abstr. 559.4; U.S. Application Ser. No. 60/682,3379, filed May 19, 2005). In the experiments described herein, animals were generally treated either with 0.9% saline (vehicle) or a drug (i.e., a compound of the invention) in the vehicle.
The ability of fluoxetine, an SSRI associated with sexual dysfunction in humans, to cause sexual dysfunction in the animal model was tested by examining a 10 mg/kg dose of fluoxetine or vehicle alone (0.9% saline), each administered intraperitoneally, once daily for 14 days, on the number of non-contact penile erections over a 30 minute trial period.
To examine the time course of the effects of a drug that causes sexual dysfunction, rats that were handled and tested as described above were treated acutely: rats were treated with vehicle for 6 days, and on the test day (day 7) instead of vehicle, the animals received a single dose of fluoxetine in vehicle (i.p.). For a subchronic (7 day) study, fluoxetine was administered each day for 7 days and the animals were evaluated on test day 7. For the chronic 14 day study, fluoxetine was administered each day for 14 days and the animals were tested on day 14. Each fluoxetine dose was 10 mg/kg in vehicle and was delivered i.p. on each of the test days as described above. The testing session for each section of the study was begun immediately following compound administration and the behavior observed for 30 minutes immediately following the drug administration. […]

male Sprague-Dawley rats = test: In vivo microdialysis of frontal cortex 5-HT (enhancement of SSRI activity); design: species or system rat; conditions: acute fluoxetine alone, 30 mg/kg s.c.
Description: The ability of the compounds of this invention to reduce time for onset of action of the representative SSRI fluoxetine was assessed using in vivo microdialysis. Using 2-3% halothane anesthesia (Fluothane; Zeneca, Cheshire, UK), male Sprague-Dawley rats (280-350 g; Charles River, Wilmington, Mass.) were secured in a stereotaxic frame with ear and incisor bars (David Kopf, Tujunga, Calif.) while a microdialysis guide cannula (CMA/12, CMA Microdialysis, Sweden) was directed above the dorsal lateral frontal cortex (A/P+3.2 mm, M/L−3.5 mm, D/L−1.3 mm). Coordinates were taken with a flat skull using the rat brain atlas of Paxinos and Watson (1986). […]
For in vivo neurochemical experiments, a microdialysis probe (CMA/12; active membrane length 2 mm; OD 0.5 mm; 20 kD cut-off) was pre-washed with artificial CSF (aCSF; 125 mM NaCl, 3 mM KCl, 0.75 mM MgSO4 and 1.2 mM CaCl2, pH 7.4) according to the manufacturers specifications. […] Subsequent microdialysis samples were collected for 3 h post-injection and analyzed for 5-HT content by high performance liquid chromatography (HPLC). […] Subsequent sample values were expressed as a percent change from this preinjection baseline value (or % change from baseline). Neurochemical data, excluding preinjection values, were analyzed by a two-way analysis of variance (ANOVA) with repeated measures (time). […]

sexual function (number of non-contact penile erections over 30 minutes) ([1]; 10 mg/kg i.p. once daily for 14 days (chronic), vs vehicle, listed as Fluoxetine): decrease in sexual function
Structure (SMILES): CNCCC(Oc1ccc(C(F)(F)F)cc1)c1ccccc1 (stereo not shown) [fluoxetine]
sexual function (number of non-contact penile erections over 30 minutes) ([1]; 10 mg/kg i.p. each day for 7 days (sub-chronic)): significant increase in sexual dysfunction | sexual function (number of non-contact penile erections over 30 minutes) ([1]; 10 mg/kg i.p. once daily for 14 days (chronic), vs vehicle): significant increase in sexual dysfunction | frontal cortex serotonin levels (male Sprague-Dawley rats): did not increase serotonin levels
